Data set [1] deals with T1, rFKBP22 (E. coli FKBP22) (Escherichia coli, UniProt P0A9L3, I65P).
T1 sequence (P0A9L3 1-206 I65P): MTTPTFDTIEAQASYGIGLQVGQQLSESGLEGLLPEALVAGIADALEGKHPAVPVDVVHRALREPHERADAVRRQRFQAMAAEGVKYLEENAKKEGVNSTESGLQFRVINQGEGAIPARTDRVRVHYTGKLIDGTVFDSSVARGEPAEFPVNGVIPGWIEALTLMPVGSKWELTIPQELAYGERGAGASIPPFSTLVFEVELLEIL
The data set can be described thus: tryptophan fluorescence quenching titration. It is filed as binding.

For data set [2], the target named is T2, rFKBP22 (E. coli FKBP22) (Escherichia coli, UniProt P0A9L3, V72P).
T2 sequence (P0A9L3 1-206 V72P): T1 sequence (P0A9L3 1-206 I65P) with P65I, V72P
The data set can be described thus: tryptophan fluorescence quenching titration. It is filed as binding.

For data set [3], the target named is T3, rFKBP22 (E. coli FKBP22) (Escherichia coli, UniProt P0A9L3).
T3 sequence (P0A9L3 1-206): T1 sequence (P0A9L3 1-206 I65P) with P65I
The data set is described as follows: tryptophan fluorescence quenching titration. In kind it is binding.

Data set [4] addresses T4, rFKBP22 (E. coli FKBP22) (Escherichia coli, UniProt P0A9L3, A82P).
T4 sequence (P0A9L3 1-206 A82P): T1 sequence (P0A9L3 1-206 I65P) with P65I, A82P
The data set can be described thus: tryptophan fluorescence quenching titration. It is filed as binding.

The data set “cross-linking” deals with the molecule itself. The data set is described as follows: cross-linking.

Changes are numbered by the printed parent chain. Names may count otherwise.

Take `CO[C@H]1C[C@@H]2CC[C@@H](C)[C@@](O)(O2)C(=O)C(=O)N2CCCC[C@H]2C(=O)O[C@H]([C@H](C)C[C@@H]2CC[C@@H](O)[C@H](OC)C2)CC(=O)[C@H](C)/C=C(\C)[C@@H](O)[C@@H](OC)C(=O)[C@H](C)C[C@H](C)/C=C/C=C/C=C/1C` [rapamycin]: the equilibrium dissociation constant (Kd) (commonly the constant that tells how readily two partners part at equilibrium) on rFKBP22 (E. coli FKBP22) [1] stood at 5.06 ± 0.38 µM; on rFKBP22 (E. coli FKBP22) [2], 5.51 ± 0.26 µM; at rFKBP22 (E. coli FKBP22) [3], 5.43 ± 0.57 µM; at rFKBP22 (E. coli FKBP22) [4], 5.41 ± 0.31 µM.

B1: V72P, a rFKBP22 variant with a Val to Pro substitution at position 72 in the helix α3 (enzyme, Escherichia coli, UniProt P0A9L3 1-206, looked up)
chain: T1 sequence (P0A9L3 1-206 I65P) with P65I, V72P
Turning to B1, the stoichiometry N (in general, the number of molecules, sites or subunits per partner or assembly) in “cross-linking” was 2.

B2: A82P, a rFKBP22 derivative harboring an Ala to Pro change at position 82 in the helix α3 (enzyme, Escherichia coli, UniProt P0A9L3 1-206, looked up)
chain: T1 sequence (P0A9L3 1-206 I65P) with P65I, A82P
In the case of B2, the “stoichiometry N” value in the data set “cross-linking” amounted to 2.

Source of the values: paper PMC5889476 (Biochimie Open, 2015).
